Assay results as given in patent US12036237B2, “Bromide source for use in treating autism spectral disorder” (INSERM (INSTITUT NATIONAL DE LA SANTE ET DE LA RECHERCHE …, priority 2016, dated 2024).
“Also recorded” adds a separate entry of the source.

Experiments:
[1] = tested on: Fmr1−/− mice; assay: Y-maze exploration; format: in vivo; details: bromide 250 mg/kg i.p. daily
Method: (§1) Sodium bromide (anhydrous, Sigma-Aldrich, Saint-Quentin, France) dissolved in saline solution (NaCl, 0.9%) at the dose of 250 or 500 mg/kg, or vehicle (NaCl, 0.9%), was administered intraperitoneally once a day for 19 days in a volume of 20 ml/kg. On testing days, bromide was administered 30 min before behavioural assays. Bumetanide (Tocris, provided by Bio-Techne, Lille, France) dissolved in NaCl 0.9% at the dose of 0.5 mg/kg (Deidda et al, 2015) or vehicle was administered intraperitoneally once a day for 19 days in a volume of 20 ml/kg.
(§2) Behavioural assays started after a week of daily bromide (or bumetanide) treatment.

[2] = tested on: Shank3B−/− mice; assay: Y-maze exploration; format: in vivo; details: bromide 250 mg/kg i.p. daily
Method: as §1, §2

[3] = tested on: Oprm1−/− mice; assay: Locomotor activity by videotracking; format: in vivo; details: Example 2; for locomotor activity after bromide administration: 250 and 500 mg/kg
Method: as §1
Locomotor activity. Locomotor activity was assessed in clear cages (21×11×17 cm) placed over a white Plexiglas infrared-lit platform. Light intensity of the room was set at 15 lx. The trajectories of the mice were analyzed and recorded via an automated tracking system equipped with an infrared-sensitive camera (Videotrack; View Point, Lyon, France). To focus on forward activity, only movements which speed was over 6 cm/s were taken into account for the measure of locomotor activity. Behavioral testing started when the animals were placed in the activity boxes for a 30 min-habituation period. They were then injected with either vehicle or sodium bromide (250 or 500 mg/kg) and locomotor activity was monitored for further 90 min.

[4] = tested on: Oprm1−/− mice; assay: Three-chamber social novelty preference test; details: bromide 125, 250, 500 mg/kg i.p. daily vs saline

## [Br-].[Na+] [bromide, Sodium bromide]
[1]
  perseverative same arm returns (cognitive stereotypies): efficiently reduced; also recorded: relieves; also recorded: suppressed
[2]; Shank3B line
  rate of alternate arm returns: not modified
[2]; Shank3B−/− mice
  perseverative same arm returns (cognitive stereotypies): normalized; also recorded: relieves; also recorded: suppressed
  rate of spontaneous alternation: rescued
[3]; chronically treated animals, males since 250 mg/kg, females only at 500 mg/kg
  locomotor activity during the habituation run: higher
[3]; controls (wild-type)
  locomotor activity after bromide administration: not modified in controls at 250 mg/kg and was increased at 500 mg/kg; also recorded: at the dose of 500 mg/kg only
[3]; mice, bromide 250 mg/kg, males more sensitive
  locomotor activity (overall): increases
[3]; mutant (KO) animals
  locomotor activity after bromide administration: increased in mutant animals at the dose of 250 mg/kg, but not at 500 mg/kg; also recorded: increased activity
[4]
  difference (mouse over toy) in nose (close) contact duration: restored difference
  difference (mouse over toy) in number of nose (close) contacts: restored difference
  difference (mouse over toy) in time spent in nose (close) contact: restored difference
  difference (preference for the mouse over the toy) in time spent in compartments: restored difference
  social preference (overall): restored social preference; also recorded: increased social preference; also recorded: restored preference for the living mouse over the toy
